Converted amounts (≈) assume the structure as drawn. Where two headings read alike, the source gives them in different places. Each block holds one molecule with its values, some of them ahead of it.
Experiments:
P. gingivalis ATCC 33277 = experiment: MIC/MBC, cultivation in 2-fold dilution series; type: cell-based; conditions: Porphyromonas gingivalis, ATCC33277, P.g. ATCC 33277; for MIC: lowest concentration without visible growth (turbidity); for MBC: no growth of subcultivation or reduction by 99.9%
Excerpt: (§1) Bacteria expressing PgQC, TfQC and PiQC, namely P. gingivalis ATCC 33277, P. gingivalis M5-1-2, T. forsythia ATCC 42077, and P. intermedia ATCC 25611 were cultivated in the presence of compounds MWT-S-00275, MWT-S-00431, MWT-S-00441 and doxycycline in 2-fold dilution series. […]

P. gingivalis M5-1-2 = experiment: MIC/MBC, cultivation in 2-fold dilution series; type: cell-based; conditions: Porphyromonas gingivalis, M512, P.g. M5-1-2; for MIC: lowest concentration without visible growth (turbidity); for MBC: no growth of subcultivation or reduction by 99.9%
Excerpt: as §1

P. intermedia ATCC 25611 = experiment: MIC/MBC, cultivation in 2-fold dilution series; type: cell-based; conditions: Prevotella intermedia, ATCC25611, P.i. ATCC 25611; for MIC: lowest concentration without visible growth (turbidity); for MBC: no growth of subcultivation or reduction by 99.9%
Excerpt: as §1

T. forsythia ATCC 42077 = experiment: MIC/MBC, cultivation in 2-fold dilution series; type: cell-based; conditions: Tannerella forsythia, ATCC42077, T.f. ATCC 42077; for MIC: lowest concentration without visible growth (turbidity); for MBC: no growth of subcultivation or reduction by 99.9%
Excerpt: as §1

PgQC = target: T1, PgQC (Porphyromonas gingivalis, UniProt Q7MT37); experiment: biochemical; parameters: species or system P. gingivalis
T1 construct: Ki; RA (average residual QC activity of PgQC); other: c = 1 μM; other: c = 1.5 μM; other: c = 10 μM; other: c = 100 μM; other: c = 12 μM; RA; fused on or other part: N-terminal His tag from pET28a(+), cleaved off by thrombin before the enzymatic characterisation
Protocol: The assay consists of varying concentration of the fluorogenic substrate and 0.5 U pyroglutaminyl aminopeptidase in 50 mM Tris-HCl, 50 mM NaCl at pH 8.0. After 10 minute incubation time at 30° C. reaction was initiated by addition of bacQC to a final volume of 125 μl reaction mixture. […] All determinations were carried out in 96 well microtiter plates (Fisher Scientific) at 30° C. using the FluoStar Optima (BMG Labtech).
For inhibitor testing, the sample composition was the same as described above, except for the addition of the putative inhibitory compound. […] (∘) represents reaction without inhibitor. Determinations were carried out in 50 mM Tris-HCl, 50 mM NaCl pH 8.0 and 1% (v/v) DMSO at 30° C.
RA refers to the average residual QC activity of PgQC measured in the presence of a concentration c of the respective compound. Ki refers to the average Ki values measured as described above, and Std(Ki) refers to the standard deviation of Ki.

[1] = read-out: RA (average residual QC activity of PgQC)
[2] = Ki (average), inhibition of PgQC, H-Gln-AMC, 50 mM Tris-HCl, 50 mM NaCl pH 8.0, 30° C.
[3] = inhibition of PgQC, H-Gln-AMC, 50 mM Tris-HCl, 50 mM NaCl pH 8.0, 30° C., read-out: Ki (average)

- MIC (P. gingivalis ATCC 33277): ≤ 3130 µg/mL
- MIC (P. gingivalis M5-1-2): ≤ 3130 µg/mL
- MIC (P. intermedia ATCC 25611): ≤ 3130 µg/mL
- MIC (T. forsythia ATCC 42077): ≤ 3130 µg/mL
Compound: C[C@H]1c2cccc(O)c2C(=O)C2=C(O)[C@]3(O)C(=O)C(C(N)=O)=C(O)[C@@H](N(C)C)[C@@H]3[C@@H](O)[C@@H]21 [Doxy, Doxycycline, reference compound]
- MBC (P. gingivalis ATCC 33277): 50000 µg/mL (≈ 113 mM)
- MBC (P. intermedia ATCC 25611): 12500 µg/mL (≈ 28.1 mM)
- MBC (T. forsythia ATCC 42077): 6250 µg/mL (≈ 14.1 mM)

Compound: c1ccc(CN2CCc3[nH]cnc3C2c2ccccc2)cc1 (stereo not drawn) [MWT-S-00268, 5-Benzyl-4-phenyl-3,4,6,7-tetrahydroimidazo[4,5-c]pyridine]
- remaining activity at 16 µM (PgQC; [1]): 93%

Compound: CC1(C)c2nc[nH]c2CCN1Cc1cc(F)c(F)c(F)c1 [MWT-S-00275, 4,4-Dimethyl-5-[(3,4,5-trifluorophenyl)methyl]-6,7-dihydro-3H-imidazo[4,5-c]pyridine]
- Ki (PgQC; [2]): 143 nM
- remaining activity at 1 µM (PgQC; [1]): 22%
- MIC (P. gingivalis ATCC 33277): 500 µg/mL (≈ 1.69 mM)
- MBC (P. gingivalis ATCC 33277): 1000 µg/mL (≈ 3.39 mM)
- MIC (P. gingivalis M5-1-2): 500 µg/mL (≈ 1.69 mM)
- MBC (P. gingivalis M5-1-2): 1000 µg/mL (≈ 3.39 mM)
- MIC (P. intermedia ATCC 25611): 500 µg/mL (≈ 1.69 mM)
- MBC (P. intermedia ATCC 25611): 500 µg/mL (≈ 1.69 mM)
- MIC (T. forsythia ATCC 42077): 250 µg/mL (≈ 0.847 mM)
- MBC (T. forsythia ATCC 42077): 250 µg/mL (≈ 0.847 mM)

Compound: CC1c2nc[nH]c2CCN1C(=O)c1ccccc1 (stereo not drawn) [MWT-S-00327]
- remaining activity at 100 µM (PgQC; [1]): 18%

Compound: c1nc2c([nH]1)CCN(Cc1ccc(OCCN3CCOCC3)cc1)C2 [MWT-S-00330, 4-[2-[4-(1,4,6,7-Tetrahydroimidazo[4,5-c]pyridin-5-ylmethyl)phenoxy]ethyl]morpholine]
- Ki (PgQC; [2]): 940 nM
- remaining activity at 8 µM (PgQC; [1]): 22%

Compound: CCCCOc1ccc(CN2CCc3[nH]cnc3C2)cc1 [MWT-S-00331, 5-[(4-Butoxyphenyl)methyl]-1,4,6,7-tetrahydroimidazo[4,5-c]pyridine]
- Ki (PgQC; [2]): 254 nM
- remaining activity at 1.5 µM (PgQC; [1]): 26%

Compound: COc1cccc(CN2CCc3[nH]cnc3C2)c1 [MWT-S-00343, 5-[(3-Methoxyphenyl)methyl]-1,4,6,7-tetrahydroimidazo[4,5-c]pyridine]
- remaining activity at 1 µM (PgQC; [1]): 65%

Compound: FC1(F)Oc2ccc(CN3CCc4[nH]cnc4C3)cc2O1 [MWT-S-00344, 5-[(2,2-Difluoro-1,3-benzodioxol-5-yl)methyl]-1,4,6,7-tetrahydro-imidazo[4,5-c]pyridine]
- remaining activity at 1 µM (PgQC; [1]): 56%

Compound: c1ccc(COc2ccc(CN3CCc4[nH]cnc4C3)cc2)cc1 [MWT-S-00359, 5-[(4-Benzyloxyphenyl)methyl]-1,4,6,7-tetrahydroimidazo[4,5-c]pyridine]
- Ki (PgQC; [2]): 192 nM
- remaining activity at 1 µM (PgQC; [1]): 31%

Compound: c1cc(CN2CCc3[nH]cnc3C2)cc(N2CCCC2)c1 [MWT-S-00361, 5-[(3-Pyrrolidin-1-ylphenyl)methyl]-1,4,6,7-tetrahydroimidazo[4,5-c]pyridine]
- remaining activity at 1 µM (PgQC; [1]): 80%

Compound: c1nc2c([nH]1)CCN(Cc1ccc3c(c1)OCCO3)C2 [MWT-S-00380, 5-(2,3-Dihydro-1,4-benzodioxin-6-ylmethyl)-1,4,6,7-tetrahydro-imidazo[4,5-c]pyridine]
- Ki (PgQC; [2]): 311 nM
- remaining activity at 1 µM (PgQC; [1]): 39%

Compound: Cc1ccc(CN2CCc3[nH]cnc3C2)cc1 [MWT-S-00420, 5-(p-Tolylmethyl)-1,4,6,7-tetrahydroimidazo[4,5-c]pyridine]
- Ki (PgQC; [2]): 806 nM
- remaining activity at 10 µM (PgQC; [1]): 16%

Compound: Clc1ccc(CN2CCc3[nH]cnc3C2)cc1 [MWT-S-00421, 5-[(4-Chlorophenyl)methyl]-1,4,6,7-tetrahydroimidazo[4,5-c]pyridine]
- Ki (PgQC; [2]): 540 nM
- remaining activity at 10 µM (PgQC; [1]): 11%

Compound: Clc1ccc(CN2CCc3[nH]cnc3C2)cc1Cl [MWT-S-00423, 5-[(3,4-Dichlorophenyl)methyl]-1,4,6,7-tetrahydroimidazo[4,5-c]pyridine]
- Ki (PgQC; [2]): 367 nM
- remaining activity at 10 µM (PgQC; [1]): 8%

Compound: O=C(c1cccc(Cl)c1)N1CCc2[nH]cnc2C1 [MWT-S-00425, (3-Chlorophenyl)(1,4,6,7-tetrahydro-5H-imidazo[4,5-c]pyridin-5-yl)methanone]
- Ki (PgQC; [3]): 174 nM
- remaining activity at 10 µM (PgQC; [1]): 5%

Compound: COc1ccc(C(=O)N2CCc3[nH]cnc3C2)cc1OC [MWT-S-00426, (3,4-Dimethoxyphenyl)(1,4,6,7-tetrahydro-5H-imidazo[4,5-c]pyridin-5-yl)methanone]
- Ki (PgQC; [3]): 1460 nM
- remaining activity at 10 µM (PgQC; [1]): 26%

Compound: O=C(c1ccc2c(c1)OCO2)N1CCc2[nH]cnc2C1 [MWT-S-00427, Benzo[d][1,3]dioxol-5-yl(1,4,6,7-tetrahydro-5H-imidazo[4,5-c]pyridin-5-yl)methanone]
- Ki (PgQC; [3]): 560 nM
- remaining activity at 10 µM (PgQC; [1]): 13%

Compound: O=C(c1ccc(-c2ccccc2)cc1)N1CCc2[nH]cnc2C1 [MWT-S-00428, [1,1′-Biphenyl]-4-yl(1,4,6,7-tetrahydro-5H-imidazo[4,5-c]pyridin-5-yl)methanone]
- Ki (PgQC; [3]): 1900 nM
- remaining activity at 1 µM (PgQC; [1]): 83%

Compound: COc1cc(OC)cc(C(=O)N2CCc3[nH]cnc3C2)c1 [MWT-S-00429, (3,5-Dimethoxyphenyl)(1,4,6,7-tetrahydro-5H-imidazo[4,5-c]pyridin-5-yl)methanone]
- Ki (PgQC; [3]): 928 nM
- remaining activity at 10 µM (PgQC; [1]): 16%

Compound: O=C(c1cccc(F)c1)N1CCc2[nH]cnc2C1 [MWT-S-00430, (3-Fluorophenyl)(1,4,6,7-tetrahydro-5H-imidazo[4,5-c]pyridin-5-yl)methanone]
- remaining activity at 1 µM (PgQC; [1]): 40%

Compound: O=C(c1cc(Cl)cc(Cl)c1)N1CCc2[nH]cnc2C1 [MWT-S-00431, (3,5-Dichlorophenyl)(1,4,6,7-tetrahydro-5H-imidazo[4,5-c]pyridin-5-yl)methanone]
- Ki (PgQC; Ki, Table 3 fit, competitive inhibition, 1% (v/v) DMSO, pH 8.0, 30° C.): 104 nM
- Ki (PgQC; Ki, exemplary determination (FIG. 4), 1% (v/v) DMSO, pH 8.0, 30° C.): 104 ± 3.31 nM
- Ki (PgQC; [3]): 100 nM
- remaining activity at 10 µM (PgQC; [1]): 3%
- MIC (P. gingivalis ATCC 33277): 1000 µg/mL (≈ 3.38 mM)
- MBC (P. gingivalis ATCC 33277): 2000 µg/mL (≈ 6.75 mM)
- MIC (P. gingivalis M5-1-2): 1000 µg/mL (≈ 3.38 mM)
- MBC (P. gingivalis M5-1-2): 2000 µg/mL (≈ 6.75 mM)
- MIC (P. intermedia ATCC 25611): 125 µg/mL (≈ 0.422 mM)
- MBC (P. intermedia ATCC 25611): 500 µg/mL (≈ 1.69 mM)
- MIC (T. forsythia ATCC 42077): 1000 µg/mL (≈ 3.38 mM)
- MBC (T. forsythia ATCC 42077): 2000 µg/mL (≈ 6.75 mM)

Compound: CCCOc1cccc(C(=O)N2CCc3[nH]cnc3C2)c1 [MWT-S-00432, (3-Propoxyphenyl)(1,4,6,7-tetrahydro-5H-imidazo[4,5-c]pyridin-5-yl)methanone]
- Ki (PgQC; [3]): 780 nM
- remaining activity at 100 µM (PgQC; [1]): 2%

Compound: O=C(c1cccc(-c2ccccc2)c1)N1CCc2[nH]cnc2C1 [MWT-S-00433, [1,1′-Biphenyl]-3-yl(1,4,6,7-tetrahydro-5H-imidazo[4,5-c]pyridin-5-yl)methanone]
- Ki (PgQC; [3]): 547 nM
- remaining activity at 1 µM (PgQC; [1]): 47%

Compound: O=C(c1ccc2c(c1)OCCO2)N1CCc2[nH]cnc2C1 [MWT-S-00434, (2,3-Dihydrobenzo[b][1,4]dioxin-6-yl)(1,4,6,7-tetrahydro-5H-imidazo-[4,5-c]pyridin-5-yl)methanone]
- Ki (PgQC; [3]): 1340 nM
- remaining activity at 100 µM (PgQC; [1]): 3%

Compound: O=C(c1cc(F)c(F)c(F)c1)N1CCc2[nH]cnc2C1 [MWT-S-00435, (1,4,6,7-Tetrahydro-5H-imidazo[4,5-c]pyridin-5-yl)(3,4,5-trifluoro-phenyl)methanone]
- Ki (PgQC; [3]): 904 nM
- remaining activity at 10 µM (PgQC; [1]): 16%

Compound: COc1cc(C(=O)N2CCc3[nH]cnc3C2)ccc1F [MWT-S-00436, (4-Fluoro-3-methoxyphenyl)(1,4,6,7-tetrahydro-5H-imidazo[4,5-c]pyridin-5-yl)methanone]
- Ki (PgQC; [3]): 1240 nM
- remaining activity at 100 µM (PgQC; [1]): 3%

Compound: O=C(c1ccc2ccccc2c1)N1CCc2[nH]cnc2C1 [MWT-S-00440, Naphthalen-2-yl(1,4,6,7-tetrahydro-5H-imidazo[4,5-c]pyridin-5-yl)methanone]
- Ki (PgQC; [3]): 126 nM
- remaining activity at 10 µM (PgQC; [1]): 4%

Compound: COc1cc(Cl)cc(C(=O)N2CCc3[nH]cnc3C2)c1 [MWT-S-00441, (3-Chloro-5-methoxyphenyl)(1,4,6,7-tetrahydro-5H-imidazo[4,5-c]pyridin-5-yl)methanone]
- Ki (PgQC; [3]): 87 nM
- remaining activity at 1 µM (PgQC; [1]): 17%
- MIC (P. gingivalis ATCC 33277): 1000 µg/mL (≈ 3.43 mM)
- MBC (P. gingivalis ATCC 33277): 2000 µg/mL (≈ 6.86 mM)
- MIC (P. gingivalis M5-1-2): 1000 µg/mL (≈ 3.43 mM)
- MBC (P. gingivalis M5-1-2): > 2000 µg/mL
- MIC (P. intermedia ATCC 25611): 63 µg/mL (≈ 0.216 mM)
- MBC (P. intermedia ATCC 25611): 63 µg/mL (≈ 0.216 mM)
- MIC (T. forsythia ATCC 42077): 2000 µg/mL (≈ 6.86 mM)
- MBC (T. forsythia ATCC 42077): 2000 µg/mL (≈ 6.86 mM)
